For the assay, the target named is T1, BKB1 receptors (Homo sapiens, UniProt P46663).
T1 construct: Human (IMR-90) lung fibroblast cells expressing native B1 receptors; endogenous in cells; host or cells: IMR-90 human lung fibroblasts, interleukin-treated to up-regulate BKB1 receptors
T1 sequence (P46663 1-353): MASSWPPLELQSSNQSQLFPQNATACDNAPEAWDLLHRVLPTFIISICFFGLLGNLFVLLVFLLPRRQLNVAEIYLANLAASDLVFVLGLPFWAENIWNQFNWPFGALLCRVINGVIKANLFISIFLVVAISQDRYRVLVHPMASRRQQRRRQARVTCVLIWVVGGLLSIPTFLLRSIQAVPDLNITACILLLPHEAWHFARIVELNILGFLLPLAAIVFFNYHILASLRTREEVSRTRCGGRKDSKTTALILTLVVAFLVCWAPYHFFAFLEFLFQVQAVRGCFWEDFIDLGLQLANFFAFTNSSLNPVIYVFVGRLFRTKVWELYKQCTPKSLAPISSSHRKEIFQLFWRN
The assay can be described thus: Calcium mobilization assay (FLIPR), B1 receptors in IMR-90 cells. It is filed as cell-based. The following applies: Human IMR-90 lung fibroblast cells, up-regulated BKB1 receptors, agonist desArg10-kallidin (DAKD) 2 to 8 nM, calcium-dependent fluorescence. The method, then:
Calcium mobilization assay (FLIPR)—Human (IMR-90) lung fibroblast cells expressing native B1 receptors were harvested by trypsinization and seeded into black wall/clear bottom 96-well plates (Costar 3904; Corning Life Sciences, Acton, Mass.) at approximately 13,000 cells/well. After 1 day incubation, cells were treated with […] (0.35 ng/ml) in 10% FBS/MEM for 2 h to up-regulate BKB1 receptors. Induced cells were loaded with fluorescent calcium indicator by incubation with 2.3 μM Fluo-4/acetoxymethyl ester (Invitrogen) at 37° C. for 1.5 h in the presence of an anion transport inhibitor (2.5 mM probenecid in 1% FBS/MEM). Extracellular dye was removed by washing with assay buffer (2.5 mM probenecid, 0.1% BSA in 20 mM HEPES/HBSS without bicarbonate or phenol red, pH 7.5) and cell plates were kept in the dark until used. Test compounds were assayed at eight concentrations in triplicate. Addition of test compounds to the cell plate and incubation for 5 min at 35° C., followed by the addition of 2 to 8 nM final BK1 agonist desArg^10-kallidin (DAKD, 3×EC50) was carried out in the fluorimetric imaging plate reader (FLIPR; Molecular Devices) while continuously monitoring calcium-dependent fluorescence.

The structures appear in SMILES notation.

Consider `CC(C(=O)NCCN1CCCC1)c1cccc(Oc2cccc(OC(F)(F)F)c2)c1` (stereo not drawn) [Compound 19, N-[(2-pyrrolidin-1-yl)ethyl]-2-{3-[3-(trifluoromethoxy)phenoxy]phenyl}propanamide], for which the IC50 is 7.76 µM.

Consider `CC(C(=O)Nc1ccncc1)c1ccc(Oc2cccc(F)c2)cc1` (stereo not drawn) [Compound 68, 2-[4-(3-fluroophenoxy)phenyl]-N-(pyridin-4-yl)propanamide], for which the IC50 was 6.17 µM.

As to `CC1CC(C)CN(CCNC(=O)C(C)c2ccc(Nc3nc(C(F)(F)F)cs3)cc2)C1` (stereo not drawn) [Compound 42, N-[2-(3,5-dimethylpiperidin-1-yl)ethyl]-2-(4-{[4-(trifluoromethyl)-1,3-thiazol-2-yl]amino}phenyl)propanamide], the IC50 was 6.61 µM.

As to `CC(C(=O)NCCNc1ccccc1)c1cccc(Oc2cccc(F)c2)c1` (stereo not drawn) [Compound 12, 2-[3-(3-fluorophenoxy)phenyl]-N-[2-(phenylamino)ethyl]propanamide], the IC50 is 7.24 µM.

Turning to `Cc1cc(NC(=O)C(C)c2cccc(C(=O)c3ccccc3)c2)n(C)n1` (stereo not drawn) [Compound 36, N-(1,3-dimethyl-1H-pyrazol-5-yl)-2-[3-(phenylcarbonyl)phenyl]propanamide], the IC50 is 9.77 µM.

On to `CC(C)(C)NC(=O)CNC(=O)C(C)(C)c1ccc(OS(=O)(=O)C(F)(F)F)cc1` [Compound 6, 4-(2-methyl-1-{[2-(tert-butylamino)-2-oxoethyl]amino}-1-oxopropan-2-yl)phenyl trifluoromethanesulfonate], for which the IC50 is 17.8 µM.

`CC(F)(C(=O)Nc1ccsc1S(N)(=O)=O)c1cccc(Nc2nc(C(F)(F)F)cs2)c1` (stereo not drawn) [Compound 4, 2-fluoro-N-(2-sulfamoylthiophen-3-yl)-2-(3-{[4-(trifluoromethyl)-1,3-thiazol-2-yl]amino}phenyl)propanamide]: the IC50 is 4.27 µM.

Consider `CC(C(=O)Nc1ccncc1)c1ccc(Nc2ccc(F)cc2)cc1` (stereo not drawn) [Compound 71, 2-{4-[(4-fluorophenyl)amino]phenyl}-N-(pyridin-4-yl)propanamide], for which the IC50 is 4.47 µM.

As to `CC(=O)NCCNC(=O)C(C)c1ccc(Oc2cccc3ccccc23)cc1` (stereo not drawn) [Compound 66, N-[2-(acetylamino)ethyl]-2-[4-(naphthalen-1-yloxy)phenyl]propanamide], the IC50 was 6.61 µM.

For the molecule `CC(C(=O)Nc1ccncc1)c1cccc(Oc2ccc3ccccc3c2)c1` (stereo not drawn) [Compound 73, 2-[3-(naphthalen-2-yloxy)phenyl]-N-(pyridin-4-yl)propanamide], the IC50 is 2.82 µM.

`CC(C(=O)Nc1ccncn1)c1ccc(Oc2ccc(F)cc2)cc1` (stereo not drawn) [Compound 72, 2-[4-(4-fluorophenoxy)phenyl]-N-(pyrimidin-4-yl)propanamide]: the IC50 is 3.39 µM.

As to `Cc1ccc(Cl)c(Nc2ccc(C(C)C(=O)NCCN3CCOCC3)cc2)c1Cl` (stereo not drawn) [Compound 16, 2-{4-[(2,6-dichloro-3-methylphenyl)amino]phenyl}-N-[2-(morpholin-4-yl)ethyl]propanamide], the IC50 is 12 µM.
